Experimental data from PMC7070078, “Accelerated identification of serine racemase inhibitor from Centella asiatica” (Scientific Reports, 2020).
Several values for one entry are separate records, joined by “and”; a condition that tells them apart may be missing. Equal values may be shown once. Each block holds one molecule with its values, some of them ahead of it.

Legend:
[1] = target: T1, serine racemase (Homo sapiens, UniProt Q9GZT4); assay: affinity pull-down from Centella asiatica extract on immobilized SR, identified by LC-MS/MS and FTIR; assay type: binding; design: gene SRR; recombinant His-tagged human SR immobilized on Ni-NTA beads
T1 sequence (Q9GZT4 1-340): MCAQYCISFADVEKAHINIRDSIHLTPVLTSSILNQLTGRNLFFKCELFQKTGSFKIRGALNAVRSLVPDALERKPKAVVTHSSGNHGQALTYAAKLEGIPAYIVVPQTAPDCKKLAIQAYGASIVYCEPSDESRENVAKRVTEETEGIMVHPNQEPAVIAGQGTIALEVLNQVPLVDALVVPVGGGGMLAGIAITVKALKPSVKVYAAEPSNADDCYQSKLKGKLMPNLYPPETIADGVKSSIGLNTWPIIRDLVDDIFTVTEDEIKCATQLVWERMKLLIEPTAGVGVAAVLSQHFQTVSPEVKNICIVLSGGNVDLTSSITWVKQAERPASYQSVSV

[2] = target: T1, serine racemase; assay: SR activity assay, reference inhibitor (Supplementary Fig. S6); assay type: biochemical; design: gene SRR; recombinant His-tagged human SR (1020 bp gene, NM_021947.1), expressed in E. coli
[3] = target: the molecule itself; assay: SEC; Ni-NTA purified SR on Sephadex S-200, 1 ml/min, 20 mM Tris-HCl, 150 mM NaCl, 15 uM PLP pH 8.0

Molecule: C[C@H]1[C@H](C)CC[C@]2(C(=O)O)CC[C@]3(C)C(=CC[C@@H]4[C@@]5(C)C[C@@H](O)[C@H](O)[C@@](C)(CO)[C@@H]5[C@H](O)C[C@]43C)[C@H]12 [madecassic acid]
- affinity pull-down from Centella asiatica extract on immobilized SR, identified [1]: Madecassoside and madecassic acid are the two compounds identified from the CA plant extract binding to SR.

- IC50 [2]: 449 µM
Molecule: O=C(O)CC(=O)O [malonate]

B1: recombinant human serine racemase (enzyme, UniProt Q9GZT4 1-340, looked up)
chain: T1 sequence (Q9GZT4 1-340)
notes: serine racemase, human; printed size 37 kDa; no cleavage is described and the purified protein was later held on Ni-NTA beads; PLP was present in the purification buffers; also called SR; recombinant SR
- stoichiometry N [3]: 2 and 4
